Entries after “also recorded” stand apart in the source; their conditions may differ. Read-outs that look alike come from different tables or passages of the source. Where no end group is shown, it is not given here.
Columns and labels:
[1] = system: calcitonin-gene related peptide mRNA in intrinsic cardiac adrenergic cells; assay: CGRP mRNA regulation in isolated rat intrinsic cardiac adrenergic (ICA) cells, RT-PCR / quantitative real-time PCR; format: cell-based; settings: for increase in calcitonin-gene related peptide mRNA (quantitative real-time PCR): isolated rat ICA cells, 60-min treatment, DPDPE 100 nM or epinephrine 1 μmol; for increase in calcitonin-gene related peptide mRNA (quantitative real-time PCR) / effect on calcitonin-gene related peptide mRNA levels: FIG. 3; for effect on calcitonin-gene related peptide mRNA levels: rat ICA cells
Description: 0-h represents immediately after 60-min drug treatment. 6-h and 24-h represent 6 and 24 hrs after 60 min drug treatment, respectively. Epi: epinephrine. UT: DPDPE-untreated.
RNA load is verified by the amount of GAPDH. Bar graphs are data normalized to their respective GAPDH mRNA.

[2] = system: rat myocardial ischemia-reperfusion model; assay: Rat myocardial ischemia-reperfusion model (30-min LAD occlusion, 4-hr reperfusion), infarct size; format: in vivo; settings: for infarct size: 30-min ischemia, 4-hr reperfusion, drug i.v. before ischemia, saline control 25±3%
Description: Rat MI model is created by 30-min LAD ligation followed by 4-h reperfusion.
(T+C)H: with high dose of terbutaline 1 mg/kg.
Experimental Myocardial Ischemia-Reperfusion Model. The rat myocardial ischemia-reperfusion model will be used (Birnbaum et al., 2005; Huang et al., 2007). This model consists of 30 min coronary artery occlusion followed by 4-hr reperfusion.
Saline (0.5 ml) will be infused to rats serving as control.
Each antagonist or their combination will be infused 20-min prior to DPDPE infusion. Arterial blood pressure and heart rate will be monitored continuously throughout the experiments.

[3] = cited from earlier work
[4] = system: left ventricular systolic function; assay: Left ventricular function by echocardiography after intravenous DPDPE; format: in vivo, rat
From the text: The measurements were obtained from left ventricular short-axis view using echocardiography.
Intravenous infusion of δ-opioid agonist DPDPE to rats causes sustained increase in left ventricular systolic function as reflected by increased left ventricular fractional shortening and ejection fraction (FIG. 10). The fractional shortening and ejection fraction are two clinical parameters used for evaluating left ventricular function assayed by echocardiograph. This positive inotropic effect elicited by DPDPE sustains for more than 40 minutes following drug injection. Augmenting cardiac contractile function by δ-opioid receptor agonist has not been reported. δ-opioid agonists can augment heart performance and can be beneficial for clinical treatment of congestive heart failure.

[5] = DPDPE 100 μg/kg i.v., rats n=3, LV short-axis echocardiography, FIG. 10

## Cc1ccc(OCC(O)C(C)NC(C)C)c2c1CCC2 (stereo not drawn) [ICI-118551]
[1]; ICA cells, epinephrine in the presence of ICI-118551, FIG. 5
  effect on epinephrine-induced CGRP gene upregulation: epinephrine failed to increase; also recorded: attenuated
[1]; ICI at 50 μmol/L, ICA cells, FIG. 5
  effect on epinephrine-induced CGRP mRNA regulation: completely eliminated

## CGRP8-37: calcitonin-gene related peptide receptor antagonist (VTHRLAGLLSRSGGVVKNNFVPTNVGSKAF; ends and bridges not checked; UniProt P06881 90-119, looked up, fragment)
[2]; FIG. 6
  infarct size: 35±8%
[2]; CGRP8-37 i.v. 30 min before onset of myocardial ischemia, FIG. 6
  increase in infarct size compared to saline control: 38%

## COc1cccc2c1C(=O)c1c(O)c3c(c(O)c1C2=O)C[C@@](O)(C(=O)CO)C[C@@H]3O[C@H]1C[C@H](N)[C@H](O)[C@H](C)O1 [doxorubicin]
[3]; dose of 501-550 mg/m^2 body surface area
  incidence of doxorubicin-induced cardiomyopathy: > 5%
[3]; dose over 550 mg/m^2
  incidence of doxorubicin-induced cardiomyopathy: 30%

## (D-Pen^2, D-Pen^5)-enkephalin [DPDPE]
[1]
  increase in calcitonin-gene related peptide mRNA (quantitative real-time PCR): 2 fold
  effect on calcitonin-gene related peptide mRNA levels: modestly increases
[2]; FIG. 6
  infarct size: 11±2%
[2]; δ-opioid agonist i.v. before ischemia, FIG. 6
  reduction of infarct size compared to control group: 57%
[4]; [5]
  increase in ejection fraction: 23%
  increase in fractional shortening: 54%
[4]; i.v. DPDPE, rats
  duration of positive inotropic effect following drug injection: more than 40 minutes

## CNC[C@H](O)c1ccc(O)c(O)c1 [epinephrine]
[1]; ICA cells treated with epinephrine for 1 hr, FIG. 5
  increase in calcitonin-gene related peptide mRNA compared to untreated (UT) group: 6 fold
[1]; following a brief 60-min epinephrine treatment
  duration of CGRP gene regulatory effect: 24 h
[1]
  increase in calcitonin-gene related peptide mRNA (quantitative real-time PCR): 14 fold
  effect on calcitonin-gene related peptide mRNA levels: increases

## CC(C)(C)NCC(O)c1cc(O)cc(O)c1 (stereo not drawn) [terbutaline]
[2]; i.v. infusion before LAD ligation, terbutaline 100 μg/kg, CGRP 30 ng/kg or combination, FIG. 9
  effect on infarct size, drug delivered before LAD ligation / acute MI: no significant infarct-size-reduction

— patent US8580738B2, “Methods for treatment of reperfusion injury and other cardiac conditions” (The Board of Regents of the University of Texas System, priority 2007, dated 2013)
